# Columns and labels:
# OVCAR-8 = assay: NCI 60 five-dose screen OVCAR-8; type: cell-based; conditions: Homo sapiens
# CCRF-CEM = assay: NCI 60 five-dose screen CCRF-CEM; type: cell-based; conditions: Homo sapiens
# CAKI-1 = assay: NCI 60 five-dose screen CAKI-1; type: cell-based; conditions: Homo sapiens
# KM12 = assay: NCI 60 five-dose screen KM12; type: cell-based; conditions: Homo sapiens
# NCI-H522 = assay: NCI 60 five-dose screen NCI-H522; type: cell-based; conditions: Homo sapiens
# NCI/ADR-RES = assay: NCI 60 five-dose screen NCI/ADR-RES; type: cell-based; conditions: Homo sapiens
# COLO 205 = assay: NCI 60 five-dose screen COLO 205; type: cell-based; conditions: Homo sapiens
# UACC-62 = assay: NCI 60 five-dose screen UACC-62; type: cell-based; conditions: Homo sapiens
# M14 = assay: NCI 60 five-dose screen M14; type: cell-based; conditions: Homo sapiens
# IGROV1 = assay: NCI 60 five-dose screen IGROV1; type: cell-based; conditions: Homo sapiens
# NCI-H322M = assay: NCI 60 five-dose screen NCI-H322M; type: cell-based; conditions: Homo sapiens
# HCT-116 = assay: NCI 60 five-dose screen HCT-116; type: cell-based; conditions: Homo sapiens
# HOP-92 = assay: NCI 60 five-dose screen HOP-92; type: cell-based; conditions: Homo sapiens
# A498 = assay: NCI 60 five-dose screen A498; type: cell-based; conditions: Homo sapiens
# MCF7 = assay: NCI 60 five-dose screen MCF7; type: cell-based; conditions: Homo sapiens
# UACC-257 = assay: NCI 60 five-dose screen UACC-257; type: cell-based; conditions: Homo sapiens
# full NCI 60 cell panel = assay: NCI 60 Cell One-dose screen; type: cell-based, human; conditions: single high dose 10^−5 M, NCI 60 panel
# Source text: Compounds were submitted to the NCI 60 Cell screen and tested at a single high dose (10^−5 M) in the full NCI 60 cell panel (see the following reference for details of using NCI 60 human tumor cell lines for screening anticancer drugs: Shoemaker R H. The NCI60 human tumor cell line anticancer drug screen. Nature Rev Cancer 2006; 6: 813-23). The One-dose data is reported as a mean graph of the percent growth of treated cells. The number reported for the One-dose assay is growth relative to the no-drug control, and relative to the time zero number of cells. This allows detection of both growth inhibition (values between 0 and 100) and lethality (values less than 0). For example, a value of 100 means no growth inhibition. A value of 40 would mean 60% growth inhibition. A value of 0 means no net growth over the course of the experiment. A value of −40 would mean 40% lethality. A value of −100 means all cells are dead. FIGS. 1-8 show the mean graph of percent growth against the NCI-60 cell panel for NUCC-0226674, NUCC-0226679, NUCC-0226680, NUCC-0226683, NUCC-0226689, NUCC-0226694, NUCC-0226695, and NUCC-0226698.
# U251 = assay: NCI 60 five-dose screen U251; type: cell-based; conditions: Homo sapiens
# ACHN = assay: NCI 60 five-dose screen ACHN; type: cell-based; conditions: Homo sapiens
# HCC-2998 = assay: NCI 60 five-dose screen HCC-2998; type: cell-based; conditions: Homo sapiens
# HT29 = assay: NCI 60 five-dose screen HT29; type: cell-based; conditions: Homo sapiens
# SR = assay: NCI 60 five-dose screen SR; type: cell-based, human
# HS 578T = assay: NCI 60 five-dose screen HS 578T; type: cell-based; conditions: Homo sapiens
# SF-295 = assay: NCI 60 five-dose screen SF-295; type: cell-based; conditions: Homo sapiens
# [1] = read-out: LC50 (the source's name) (converted)
# [2] = read-out: LC50 (the source's name)
compound,measurement,setting,value
O=c1ccc(Cn2c(C(F)(F)F)cc3c(Cl)ncnc32)c[nH]1 [NUCC-0226698],GI50,OVCAR-8,3.55 µM
same,IC50,OVCAR-8,4.79 µM
same,IC (TGI),OVCAR-8,17.4 µM
same,CC50,OVCAR-8; [1],≥ 100 µM
same,GI50,CCRF-CEM,4.37 µM
same,IC50,CCRF-CEM,6.61 µM
same,IC (TGI),CCRF-CEM,100 µM
same,CC50,CCRF-CEM; [2],≥ 100 µM
same,GI50,CAKI-1,23.4 µM
same,IC50,CAKI-1,42.7 µM
same,IC (TGI),CAKI-1,100 µM
same,CC50,CAKI-1; [1],≥ 100 µM
same,GI50,KM12,17.8 µM
same,IC50,KM12,30.2 µM
same,IC (TGI),KM12,39.8 µM
same,CC50,KM12; [1],91.2 µM
same,GI50,NCI-H522,2.04 µM
same,IC50,NCI-H522,3.98 µM
same,IC (TGI),NCI-H522,4.9 µM
same,CC50,NCI-H522; [1],≥ 100 µM
same,GI50,NCI/ADR-RES,14.1 µM
same,IC50,NCI/ADR-RES,27.5 µM
same,IC (TGI),NCI/ADR-RES,39.8 µM
same,CC50,NCI/ADR-RES; [1],≥ 100 µM
same,GI50,COLO 205,87.1 µM
same,IC50,COLO 205,100 µM
same,IC (TGI),COLO 205,100 µM
same,CC50,COLO 205; [1],≥ 100 µM
same,GI50,UACC-62,5.5 µM
same,IC50,UACC-62,11 µM
same,IC (TGI),UACC-62,20 µM
same,CC50,UACC-62; [1],53.7 µM
same,GI50,M14,4.07 µM
same,IC50,M14,6.92 µM
same,IC (TGI),M14,21.9 µM
same,CC50,M14; [1],≥ 100 µM
same,GI50,IGROV1; IGROV-1,2.29 µM
same,IC50,IGROV1; IGROV-1,3.72 µM
same,IC (TGI),IGROV1; IGROV-1,6.03 µM
same,CC50,"IGROV1; IGROV-1, read-out: LC50 (the source's name) (converted)",26.3 µM
same,GI50,NCI-H322M,14.1 µM
same,IC50,NCI-H322M,32.4 µM
same,IC (TGI),NCI-H322M,39.8 µM
same,CC50,NCI-H322M; [1],≥ 100 µM
same,GI50,HCT-116,3.55 µM
same,IC50,HCT-116,4.17 µM
same,IC (TGI),HCT-116,29.5 µM
same,CC50,HCT-116; [1],≥ 100 µM
same,GI50,HOP-92,22.9 µM
same,IC50,HOP-92,100 µM
same,IC (TGI),HOP-92,100 µM
same,CC50,HOP-92; [1],≥ 100 µM
same,GI50,A498,≥ 100 µM
same,IC50,A498,100 µM
same,IC (TGI),A498,100 µM
same,CC50,A498; [1],≥ 100 µM
same,GI50,MCF7,20.9 µM
same,IC50,MCF7,32.4 µM
same,IC (TGI),MCF7,67.6 µM
same,CC50,MCF7; [1],≥ 100 µM
same,GI50,UACC-257,3.16 µM
same,IC50,UACC-257,6.46 µM
same,IC (TGI),UACC-257,12.9 µM
same,CC50,UACC-257; [1],75.9 µM
same,growth inhibition in the One-Dose Screen,full NCI 60 cell panel,significant growth inhibition
same,GI50,U251; U-251,22.4 µM
same,IC50,U251; U-251,33.1 µM
same,IC (TGI),U251; U-251,69.2 µM
same,CC50,"U251; U-251, read-out: LC50 (the source's name) (converted)",≥ 100 µM
same,GI50,ACHN,22.4 µM
same,IC50,ACHN,33.9 µM
same,IC (TGI),ACHN,100 µM
same,CC50,ACHN; [1],≥ 100 µM
same,GI50,HCC-2998,2.88 µM
same,IC50,HCC-2998,5.25 µM
same,IC (TGI),HCC-2998,10 µM
same,CC50,HCC-2998; [1],34.7 µM
same,GI50,HT29; HT-29,28.8 µM
same,IC50,HT29; HT-29,38 µM
same,IC (TGI),HT29; HT-29,100 µM
same,CC50,"HT29; HT-29, read-out: LC50 (the source's name) (converted)",≥ 100 µM
same,TGI,SR,4.93 −log[M]
same,GI50,SR; Homo sapiens,2.75 µM
same,IC50,SR; Homo sapiens,3.89 µM
same,CC50,"SR; Homo sapiens, read-out: LC50 (the source's name)",≥ 100 µM
same,GI50,HS 578T,8.71 µM
same,IC50,HS 578T,100 µM
same,IC (TGI),HS 578T,50.1 µM
same,CC50,HS 578T; [2],≥ 100 µM
same,GI50,SF-295,28.2 µM
same,IC50,SF-295,50.1 µM
same,IC (TGI),SF-295,100 µM
same,CC50,SF-295; [1],≥ 100 µM
